Source: patent US20030045563A1, “Pharmaceutical composition having reduced tendency for drug crystallization” (priority 2001, published 2003)
One block for each molecule: values may come before it.

Assay: Test I: turbidity (apparent absorbance at 650 nm) of drug solutions with or without test polymer
Conditions: pH 7 phosphate buffer
[1] = drug 31.3 μg/ml, Dextran 65,000 0.5% w/w
[2] = drug 31.3 μg/ml, Ethylcellulose A15 0.5% w/w
[3] = drug 31.3 μg/ml, Glycerin (non-polymer) 0.5% w/w
[4] = drug 31.3 μg/ml, HPC 80,000 0.5% w/w
[5] = drug 31.3 μg/ml, HPMC E15 0.5% w/w
[6] = drug 31.3 μg/ml, Na CMC 250,000 0.5% w/w
[7] = drug 31.3 μg/ml, PEG 8,000 0.5% w/w
[8] = drug 31.3 μg/ml, PEG 20,000 0.5% w/w
[9] = drug 31.3 μg/ml, PVP 10,000 0.5% w/w
[10] = drug 31.3 μg/ml, PVP 29,000 0.5% w/w
[11] = drug 31.3 μg/ml, PVP 55,000 0.5% w/w
[12] = drug 62.5 μg/ml, Dextran 65,000 0.5% w/w
[13] = drug 62.5 μg/ml, Ethylcellulose A15 0.5% w/w
[14] = drug 62.5 μg/ml, Glycerin (non-polymer) 0.5% w/w
[15] = drug 62.5 μg/ml, HPC 80,000 0.5% w/w
[16] = drug 62.5 μg/ml, HPMC E15 0.5% w/w
[17] = drug 62.5 μg/ml, Na CMC 250,000 0.5% w/w
[18] = drug 62.5 μg/ml, PEG 8,000 0.5% w/w
[19] = drug 62.5 μg/ml, PEG 20,000 0.5% w/w
[20] = drug 62.5 μg/ml, PVP 10,000 0.5% w/w
[21] = drug 62.5 μg/ml, PVP 29,000 0.5% w/w
[22] = drug 62.5 μg/ml, PVP 55,000 0.5% w/w
[23] = drug 125 μg/ml, Dextran 65,000 0.5% w/w
[24] = drug 125 μg/ml, Ethylcellulose A15 0.5% w/w
[25] = drug 125 μg/ml, Glycerin (non-polymer) 0.5% w/w
[26] = drug 125 μg/ml, HPC 80,000 0.5% w/w
[27] = drug 125 μg/ml, HPMC E15 0.5% w/w
[28] = drug 125 μg/ml, Na CMC 250,000 0.5% w/w
[29] = drug 125 μg/ml, PEG 8,000 0.5% w/w
[30] = drug 125 μg/ml, PEG 20,000 0.5% w/w
[31] = drug 125 μg/ml, PVP 10,000 0.5% w/w
[32] = drug 125 μg/ml, PVP 29,000 0.5% w/w
[33] = drug 125 μg/ml, PVP 55,000 0.5% w/w
[34] = drug 250 μg/ml, Dextran 65,000 0.5% w/w
[35] = drug 250 μg/ml, Ethylcellulose A15 0.5% w/w
[36] = drug 250 μg/ml, Glycerin (non-polymer) 0.5% w/w
[37] = drug 250 μg/ml, HPC 80,000 0.5% w/w
[38] = drug 250 μg/ml, HPMC E15 0.5% w/w
[39] = drug 250 μg/ml, Na CMC 250,000 0.5% w/w
[40] = drug 250 μg/ml, PEG 8,000 0.5% w/w
[41] = drug 250 μg/ml, PEG 20,000 0.5% w/w
[42] = drug 250 μg/ml, PVP 10,000 0.5% w/w
[43] = drug 250 μg/ml, PVP 29,000 0.5% w/w
[44] = drug 250 μg/ml, PVP 55,000 0.5% w/w

- Absorbance [1]: 0.033
- Absorbance [2]: 0.041
- Absorbance [3]: 0.038
- Absorbance [4]: 0.034
- Absorbance [5]: 0.037
- Absorbance [6]: 0.046
- Absorbance [7]: 0.031
- Absorbance [8]: 0.039
- Absorbance [9]: 0.035
- Absorbance [10]: 0.031
- Absorbance [11]: 0.04
- Absorbance (drug 31.3 μg/ml, polymer None): 0.036
- Absorbance [12]: 0.076
- Absorbance [13]: 0.039
- Absorbance [14]: 0.07
- Absorbance [15]: 0.038
- Absorbance [16]: 0.039
- Absorbance [17]: 0.078
- Absorbance [18]: 0.169
- Absorbance [19]: 0.16
- Absorbance [20]: 0.041
- Absorbance [21]: 0.037
- Absorbance [22]: 0.049
- Absorbance (drug 62.5 μg/ml, polymer None): 0.069
- Absorbance [23]: 0.266
- Absorbance [24]: 0.06
- Absorbance (drug 125 μg/ml, Ethylcellulose A15 0.5% w/w, listed as celecoxib): reduced turbidity
- Absorbance [25]: 0.184
- Absorbance [26]: 0.05
- Absorbance (drug 125 μg/ml, HPC 80,000 0.5% w/w, listed as celecoxib): reduced turbidity
- Absorbance [27]: 0.049
- Absorbance (drug 125 μg/ml, HPMC E15 0.5% w/w, listed as celecoxib): reduced turbidity
- Absorbance [28]: 0.083
- Absorbance (drug 125 μg/ml, Na CMC 250,000 0.5% w/w, listed as celecoxib): reduced turbidity
- Absorbance [29]: 0.308
- Absorbance [30]: 0.342
- Absorbance [31]: 0.072
- Absorbance (drug 125 μg/ml, PVP 10,000 0.5% w/w, listed as celecoxib): reduced turbidity
- Absorbance [32]: 0.064
- Absorbance (drug 125 μg/ml, PVP 29,000 0.5% w/w, listed as celecoxib): reduced turbidity
- Absorbance [33]: 0.048
- Absorbance (drug 125 μg/ml, PVP 55,000 0.5% w/w, listed as celecoxib): reduced turbidity
- Absorbance (drug 125 μg/ml, polymer None): 0.146
- Absorbance [34]: 0.379
- Absorbance [35]: 0.085
- Absorbance (drug 250 μg/ml, Ethylcellulose A15 0.5% w/w, listed as celecoxib): reduced turbidity
- Absorbance [36]: 0.41
- Absorbance [37]: 0.11
- Absorbance (drug 250 μg/ml, HPC 80,000 0.5% w/w, listed as celecoxib): reduced turbidity
- Absorbance [38]: 0.093
- Absorbance (drug 250 μg/ml, HPMC E15 0.5% w/w, listed as celecoxib): reduced turbidity
- Absorbance [39]: 0.148
- Absorbance (drug 250 μg/ml, Na CMC 250,000 0.5% w/w, listed as celecoxib): reduced turbidity
- Absorbance [40]: 0.485
- Absorbance [41]: 0.654
- Absorbance [42]: 0.2
- Absorbance (drug 250 μg/ml, PVP 10,000 0.5% w/w, listed as celecoxib): reduced turbidity
- Absorbance [43]: 0.118
- Absorbance (drug 250 μg/ml, PVP 29,000 0.5% w/w, listed as celecoxib): reduced turbidity
- Absorbance [44]: 0.105
- Absorbance (drug 250 μg/ml, PVP 55,000 0.5% w/w, listed as celecoxib): reduced turbidity
- Absorbance (drug 250 μg/ml, polymer None): 0.376
SMILES: Cc1ccc(-c2cc(C(F)(F)F)nn2-c2ccc(S(N)(=O)=O)cc2)cc1 [Celecoxib, 4-[5-(4-methylphenyl)-3-(trifluoromethyl)-1H-pyrazol-1-yl]benzenesulfonamide]

- Absorbance [1]: 0.03
- Absorbance [2]: 0.033
- Absorbance [3]: 0.03
- Absorbance [4]: 0.031
- Absorbance [5]: 0.032
- Absorbance [6]: 0.03
- Absorbance [7]: 0.03
- Absorbance [8]: 0.031
- Absorbance [9]: 0.032
- Absorbance [10]: 0.03
- Absorbance [11]: 0.032
- Absorbance (drug 31.3 μg/ml, polymer None): 0.031
- Absorbance [12]: 0.031
- Absorbance [13]: 0.033
- Absorbance [14]: 0.028
- Absorbance [15]: 0.032
- Absorbance [16]: 0.034
- Absorbance [17]: 0.036
- Absorbance [18]: 0.03
- Absorbance [19]: 0.031
- Absorbance [20]: 0.034
- Absorbance [21]: 0.03
- Absorbance [22]: 0.031
- Absorbance (drug 62.5 μg/ml, polymer None): 0.029
- Absorbance [23]: 0.033
- Absorbance [24]: 0.033
- Absorbance [25]: 0.029
- Absorbance [26]: 0.046
- Absorbance [27]: 0.034
- Absorbance [28]: 0.09
- Absorbance [29]: 0.03
- Absorbance [30]: 0.031
- Absorbance [31]: 0.032
- Absorbance [32]: 0.032
- Absorbance [33]: 0.032
- Absorbance (drug 125 μg/ml, polymer None): 0.029
- Absorbance [34]: 0.289
- Absorbance [35]: 0.052
- Absorbance (drug 250 μg/ml, Ethylcellulose A15 0.5% w/w, listed as valdecoxib): reduced turbidity
- Absorbance [36]: 0.229
- Absorbance [37]: 0.093
- Absorbance (drug 250 μg/ml, HPC 80,000 0.5% w/w, listed as valdecoxib): reduced turbidity
- Absorbance [38]: 0.064
- Absorbance (drug 250 μg/ml, HPMC E15 0.5% w/w, listed as valdecoxib): reduced turbidity
- Absorbance [39]: 0.174
- Absorbance (drug 250 μg/ml, Na CMC 250,000 0.5% w/w, listed as valdecoxib): reduced turbidity
- Absorbance [40]: 0.345
- Absorbance [41]: 0.433
- Absorbance [42]: 0.321
- Absorbance [43]: 0.183
- Absorbance (drug 250 μg/ml, PVP 29,000 0.5% w/w, listed as valdecoxib): reduced turbidity
- Absorbance [44]: 0.162
- Absorbance (drug 250 μg/ml, PVP 55,000 0.5% w/w, listed as valdecoxib): reduced turbidity
- Absorbance (drug 250 μg/ml, polymer None): 0.185
SMILES: Cc1onc(-c2ccccc2)c1-c1ccc(S(N)(=O)=O)cc1 [Valdecoxib, 4-[5-methyl-3-phenylisoxazol-4-yl]benzenesulfonamide]
